In brackets after ≈: the same amount, converted by molar mass.
Assays:
[1] = Drug level in pH 7.4 PBS treated with camptothecin-lysine at 1 mM at 37 degC after 3 days by RP-HPLC analysis; format: physicochemical; conditions: buffer, pH 7.4, 72 h, 1000 µM
[2] = Drug level in pH 7.4 PBS treated with camptothecin-lysine nanotube at 37 degC after 1 week by RP-HPLC analysis; format: physicochemical; conditions: buffer, pH 7.4, 168 h
[3] = Drug level in pH 9 borate buffer treated with camptothecin-lysine at 1 mM at 37 degC by RP-HPLC analysis; format: physicochemical; conditions: pH 9, 1000 µM
[4] = tested on: A549; experiment: Cytotoxicity against human A549 cells assessed as cell viability after 96 hrs by MTT assay; format: functional, cell-based; conditions: A549, 96 h
[5] = tested on: NCI-H460; experiment: Cytotoxicity against human NCI-H460 cells assessed as cell viability after 96 hrs by MTT assay; format: functional, cell-based; conditions: NCI-H460, 96 h
[6] = Solubility of the compound in water; format: physicochemical
[7] = Drug level in pH 6 PBS treated with camptothecin-lysine at 0.1 mM at 37 degC after 15 hrs by RP-HPLC analysis; format: physicochemical; conditions: buffer, pH 6, 15 h, 100 µM
[8] = tested on: A549; experiment: Drug uptake in human A549 cells at 10 mM after 8 hrs by flow cytometric method; format: ADME, cell-based; conditions: a549, 8 h, 10000 µM
[9] = tested on: NCI-H23; experiment: Cytotoxicity against human NCI-H23 cells assessed as cell viability after 96 hrs by MTT assay; format: functional, cell-based; conditions: NCI-H23, 96 h
[10] = tested on: A549; experiment: Drug uptake in human A549 cells at 10 mM after 12 to 24 hrs by flow cytometric method; format: ADME, cell-based; conditions: a549, 10000 µM
[11] = Drug level in pH 7.4 PBS treated with camptothecin-lysine at 0.1 mM at 37 degC after 15 hrs by RP-HPLC analysis; format: physicochemical; conditions: buffer, pH 7.4, 15 h, 100 µM
[12] = Induction of self assembly in pH 7.4 PBS assessed as zeta potential of nanotube at 1 mM after 1 day; format: physicochemical; conditions: buffer, pH 7.4, 24 h, 1000 µM
[13] = Induction of self assembly in pH 7.4 PBS assessed as thickness of nanotube walls at 1 mM after 72 hrs by transmission electron microscopy; format: physicochemical; conditions: buffer, pH 7.4, 72 h, 1000 µM
[14] = Critical aggregation concentration of the compound in pH 7.4 PBS by Nile Red dye based luminescence spectrometric method; format: ADME; conditions: buffer
[15] = Induction of self assembly in pH 7.4 PBS assessed as beta-sheet interaction within assembly at 20 mM lyophilized for 3 days followed by redissolved in D2O by fourier transform infrared spectroscopic method; format: physicochemical; conditions: buffer, pH 7.4, 72 h, 20000 µM
[16] = Induction of self assembly in pH 7.4 PBS assessed as diameter of nanotube at 10 mM after 24 hrs by transmission electron microscopy; format: physicochemical; conditions: buffer, pH 7.4, 24 h, 10000 µM
[17] = Induction of non specific self aggregation in pH 7.4 PBS at 250 uM; format: physicochemical; conditions: buffer, pH 7.4, 250 µM
[18] = Induction of self assembly in pH 7.4 PBS assessed as diameter of nanotube at 1 mM after 72 hrs by transmission electron microscopy; format: physicochemical; conditions: buffer, pH 7.4, 72 h, 1000 µM
[19] = Induction of self assembly in water at pH 7 assessed as diameter of nanotube at 1 mM after 72 hrs by transmission electron microscopy; format: physicochemical; conditions: buffer, pH 7, 72 h, 1000 µM
[20] = Solubility of the compound in pH 7.4 PBS; format: physicochemical
[21] = Induction of J-type self aggregation in pH 7.4 PBS at 250 uM after 3 days by UV-Vis spectrometry; format: physicochemical; conditions: buffer, pH 7.4, 72 h
[22] = Critical aggregation concentration of the compound in water by Nile Red dye based luminescence spectrometric method; format: ADME; conditions: buffer
[23] = Drug metabolism in pH 7.4 PBS assessed as remaining parent compound level at 1 mM at 37 degC after 3 days by RP-HPLC analysis; format: physicochemical; conditions: read-out: Stability

CC[C@@](O)(C(=O)O)c1cc2n(c(=O)c1CO)Cc1cc3ccccc3nc1-2
Drug metabolism [1]: metabolite_detected
Drug metabolism [2]: metabolite_detected
Drug metabolism [3]: metabolite_detected

CC[C@@]1(O)C(=O)OCc2c1cc1n(c2=O)Cc2cc3ccccc3nc2-1 [CAMPTOTHECIN]
Drug metabolism [1]: metabolite_detected
IC50 [4]: 350 nM
Drug metabolism [2]: metabolite_detected
IC50 [5]: 190 nM
solubility [6]: 3 µg/mL (≈ 0.00861 mM)
Drug metabolism [7]: metabolite_detected
Drug uptake [8]: Active
IC50 [9]: 70 nM
Drug uptake [10]: Active
Drug metabolism [11]: metabolite_detected

CC[C@@]1(OC(=O)CCC(=O)NCCCC[C@H](N)C(N)=O)C(=O)OCc2c1cc1n(c2=O)Cc2cc3ccccc3nc2-1
Activity [12]: 19.7 mV
Activity [13]: 7.5 nm
CAC [14]: 160 µM
Activity [15]: Not Active
Activity [16]: < 500 nm
Activity [17]: Active
Activity [18]: 70 nm
Activity [19]: 40 nm
IC50 [4]: 1120 nM
solubility [20]: 5140 µg/mL (≈ 8.93 mM)
IC50 [5]: 430 nM
solubility [6]: 12100 µg/mL (≈ 21 mM)
Activity [21]: Active
CAC [22]: 200 µM
Drug uptake [8]: Active
IC50 [9]: 120 nM
remaining at 72 h, 1000 µM [23]: 39%
